The values that follow come from PubChem BioAssay (NCI).

Common to all, as to assay: NCI anticancer screen, dose series, 48 h
The subject of assay [1] is UACC-257 melanoma.
For assay [2], the system named is MOLT-4 leukemia.
In assay [3] the test system is CAKI-1 renal.
Assay [4] has as its system MCF7 breast.
Assay [5] has as its system SF-295 CNS.
The test system of assay [6] is EKVX NSCLC.
Assay [7] relates to NCI-H226 lung.
Assay [8] concerns RPMI-8226 leukemia.
Assay [9] concerns RXF 393 renal.
Assay [10] has as its system UACC-62 melanoma.
For assay [11], the system named is 786-0 renal.
The test system of assay [12] is NCI-H23 lung.
The test system of assay [13] is NCI-H522 lung.
Assay [14] has as its system LOX IMVI melanoma.
Assay [15] concerns U251 CNS.
Assay [16] deals with K-562 leukemia.
In assay [17] the test system is HCT-15 colon.
In assay [18] the test system is OVCAR-5 ovarian.

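48-hour exposure; five concentrations; linearly interpolated endpoints. At the TGI there is no net growth.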

Turning to `CC(=O)c1cccc2c1CC1(C2)Cc2ccc3c(c2C1=O)CCC3` (stereo not given), the TGI in assay [1] is 43.9 µM; in assay [2] it was over 100 µM; in assay [3] it was over 100 µM; in [4], 76.4 µM; in assay [5] it was over 100 µM; in assay [6] it was 83.3 µM. For the same compound, the TGI in assay [7], in assay [8], in assay [9], in assay [10], in assay [11] and in assay [12] was over 100 µM each time. The TGI in assay [13], in [14], in [15], in [16], in assay [17] and in assay [18] was over 100 µM each time.

Turning to `CCCN(CCCCC(NC(C)=O)C(=O)NCc1ccccc1)C(=O)N(CCCl)N=O` (stereo not given), the TGI in assay [1], in assay [2], in [3], in assay [4], in assay [5] and in assay [6] was over 100 µM in each case. In addition, the TGI in [7] is over 100 µM; in assay [8], over 100 µM; in assay [9], 98.9 µM; in assay [10], over 100 µM; in [11], over 89.4 µM; in assay [12] it was 98.5 µM. Besides, the TGI in [13] was over 100 µM; in assay [14], over 100 µM; in [15], over 74.9 µM; in assay [16] it was over 100 µM; in assay [17], over 100 µM; in assay [18], over 100 µM.

As for `NS(=O)(=O)c1nnc(NC(=O)c2ccccc2)s1`, the TGI in assay [1], in assay [2], in assay [3], in [4], in assay [5] and in assay [6] was over 100 µM in each case. Also, the TGI in assay [7], in assay [8], in [9], in assay [10], in [11] and in assay [12] was over 100 µM in each case. In addition, the TGI in assay [13], in assay [14], in assay [15], in assay [16], in assay [17] and in [18] was over 100 µM throughout.

For the compound `CCSc1nc(N2CCOCC2)c2cn[nH]c2n1`, the TGI in [1], in assay [2], in [3], in assay [4], in assay [5] and in [6] was over 100 µM throughout. Further, the TGI in [7], in [8], in [9], in [10], in assay [11] and in assay [12] was over 100 µM in each case. Besides, the TGI in assay [13], in assay [14], in assay [15], in assay [16], in [17] and in assay [18] was over 100 µM throughout.

In the case of `CN1CCC(OC(=O)Oc2ccccc2)(c2ccccc2)CC1`, the TGI in [1] was 34 µM; in [2] it was 36.4 µM; in assay [3] it was over 100 µM; in [4], 35.1 µM; in [5] it was 55.4 µM; in assay [6] it was 79.5 µM. Also, the TGI is 62.7 µM in assay [7]; 35.7 µM in [8]; over 100 µM in assay [9]; 37.6 µM in [10]; over 100 µM in assay [11]; 35.7 µM in assay [12]. Further, the TGI in assay [13] was 49.8 µM; in [14] it was 34 µM; in assay [15] it was 44.9 µM; in assay [16], 55.3 µM; in assay [17], 36.8 µM; in [18], 84.2 µM.

With `C=C1CC[C@@]2(OC1)OC1C[C@H]3[C@@H]4CC=C5C[C@@H](O)CC(OC6OCC(OC(=O)[C@@H](O)[C@@H](C)CC)C(OC(C)=O)C6OC6OC(C)C(O)C(O)C6O)[C@]5(C)[C@H]4CC[C@]3(C)C1[C@@H]2C` (stereo not given in full), the TGI in assay [1] is 5.48 µM; in assay [2] it was 3.54 µM; in [3], 7.85 µM; in assay [4], 3.23 µM; in assay [5], 3.27 µM; in assay [6], 6.51 µM. Also, the TGI was found to be 6.01 µM in assay [7]; 4.89 µM in assay [8]; 4.48 µM in [9]; 3.37 µM in assay [10]; 3.27 µM in [11]; 6.57 µM in assay [12]. Further, the TGI was found to be 3.27 µM in assay [13]; 3.67 µM in assay [14]; 3.21 µM in [15]; 4.71 µM in assay [16]; 3.67 µM in [17]; 4.89 µM in assay [18].

On to `CC(=O)NNc1nc(C)c(C(/C=C/c2cccc([N+](=O)[O-])c2)=N/NC(=S)NN)s1`, for which the TGI in assay [1], in assay [2], in [3], in [4], in assay [5] and in assay [6] was over 100 µM in each case. Moreover, the TGI in assay [7], in [8], in assay [9], in [10], in [11] and in assay [12] was over 100 µM throughout. The TGI in assay [13], in [14], in assay [15], in assay [16], in assay [17] and in [18] was over 100 µM each time.

Regarding `CC(C)NC(=O)OCc1c(COC(=O)NC(C)C)c(-c2ccc[n+](COC(=O)CC(C)(C)C)c2)n2c1CCC2`, the TGI in [1], in [2], in [3], in assay [4], in assay [5] and in [6] was over 100 µM each time. For the same compound, the TGI in assay [7], in assay [8], in assay [9], in assay [10], in assay [11] and in assay [12] was over 100 µM each time. Besides, the TGI in [13], in assay [14], in assay [15], in [16], in assay [17] and in [18] was over 100 µM in each case.

As to `C=C(C)[C@@H](C(=O)OC)N1C(=O)c2ccccc2C1=O`, the TGI in assay [1], in assay [2], in assay [3], in [4], in [5] and in assay [6] was over 100 µM throughout. Further, the TGI in assay [7], in assay [8], in assay [9], in [10], in [11] and in [12] was over 100 µM each time. The TGI in [13], in [14], in [15], in assay [16], in assay [17] and in assay [18] was over 100 µM throughout.

Consider `Cc1cccc2c(N)c3cccc(C(=O)NCCCNCCN)c3nc12`, for which the TGI in assay [1] is 31.1 µM; in assay [2], 17.4 µM; in assay [3], 26.3 µM; in [4] it was 11 µM; in assay [5] it was 20.9 µM; in assay [6], 33.2 µM. Moreover, the TGI stood at 9.15 µM in [7]; 37.3 µM in assay [8]; 18.6 µM in assay [9]; 19 µM in assay [10]; 11.4 µM in assay [11]; 10.9 µM in assay [12]. The TGI in [13] is 0.0786 µM; in [14] it was 25.2 µM; in assay [15] it was 9.31 µM; in [16], over 100 µM; in assay [17], over 100 µM; in assay [18] it was 38.4 µM.

`O=C1NC(Nc2cccc(Cl)c2)=N/C1=C\c1ccc(Cl)c(Cl)c1`: the TGI in [1] came to 22.2 µM; in assay [2] it was 20.8 µM; in assay [3], 18.4 µM; in [4], 11.1 µM; in assay [5], 17.2 µM; in [6], 12.2 µM. Also, the TGI came to 17.2 µM in assay [7]; 22.7 µM in assay [8]; 10.4 µM in assay [9]; 21.6 µM in assay [10]; 13 µM in [11]; 14.1 µM in assay [12]. The TGI in assay [13] is 6.62 µM; in assay [14], 4.26 µM; in assay [15], 14.6 µM; in assay [16] it was 14.5 µM; in [17], 18.6 µM; in [18], 21.8 µM.

In the case of `CC(=O)NCc1nc(C#N)c(N)o1`, the TGI in assay [1], in assay [2], in [3], in assay [4], in assay [5] and in [6] was over 100 µM throughout. Besides, the TGI in [7], in assay [8], in assay [9], in assay [10], in assay [11] and in [12] was over 100 µM throughout. In addition, the TGI in assay [13], in assay [14], in assay [15], in [16], in [17] and in assay [18] was over 100 µM in each case.

For the compound `CCOC(=O)C(=C(SC)SC)c1nn2c(=O)cc(C)nc2s1`, the TGI is 45.2 µM in assay [1]; 44.1 µM in [2]; 60.1 µM in [3]; 35.5 µM in assay [4]; over 100 µM in assay [5]; 53.8 µM in [6]. The TGI in assay [7] was determined as 44.6 µM; in assay [8], 41.3 µM; in assay [9], 47.5 µM; in [10], 57.3 µM; in assay [11], 36.2 µM; in assay [12], 65.9 µM. In addition, the TGI in [13] was 41.7 µM; in [14] it was 29.5 µM; in assay [15] it was 58.1 µM; in assay [16], 44.1 µM; in assay [17] it was 31.8 µM; in assay [18], 67.2 µM.

Take `C=CCN1C(=O)/C(=C/c2ccccc2)NC1=S`: the TGI in assay [1], in assay [2], in assay [3], in assay [4], in assay [5] and in assay [6] was over 100 µM in each case. Besides, the TGI in [7], in assay [8], in assay [9], in assay [10], in assay [11] and in assay [12] was over 100 µM each time. Also, the TGI in assay [13], in assay [14], in [15], in [16], in assay [17] and in assay [18] was over 100 µM each time.

Regarding `O=C(CNc1ccc(Cl)cc1)Nn1c(-c2ccccc2)nc2ccccc2c1=O`, the TGI amounted to 33.2 µM in [1]; 16.2 µM in assay [2]; 23.6 µM in [3]; 8.06 µM in assay [4]; 29.8 µM in assay [5]; 35.7 µM in [6]. Moreover, the TGI in [7] turned out to be 25.2 µM; in [8], 45.2 µM; in assay [9], 17.4 µM; in assay [10] it was 10.9 µM; in assay [11] it was 10.2 µM; in assay [12], 18 µM. Further, the TGI stood at 11.5 µM in assay [13]; 4.12 µM in assay [14]; 5.02 µM in [15]; 14.3 µM in assay [16]; 18.9 µM in assay [17]; 28.2 µM in assay [18].
